Results taken from patent US12403132B2, “Methods of treating bone marrow failure syndromes and compositions for use in the same” (The Board of Trustees of the Leland Stanford Junior …, priority 2020, dated 2025).

Tests used:
NLK [1] = target: T1, NLK (Homo sapiens, UniProt Q9UBE8); assay: Kinase Profiling of SD208; format: biochemical; details: 10 μM; data not shown
T1 sequence (Q9UBE8 1-527): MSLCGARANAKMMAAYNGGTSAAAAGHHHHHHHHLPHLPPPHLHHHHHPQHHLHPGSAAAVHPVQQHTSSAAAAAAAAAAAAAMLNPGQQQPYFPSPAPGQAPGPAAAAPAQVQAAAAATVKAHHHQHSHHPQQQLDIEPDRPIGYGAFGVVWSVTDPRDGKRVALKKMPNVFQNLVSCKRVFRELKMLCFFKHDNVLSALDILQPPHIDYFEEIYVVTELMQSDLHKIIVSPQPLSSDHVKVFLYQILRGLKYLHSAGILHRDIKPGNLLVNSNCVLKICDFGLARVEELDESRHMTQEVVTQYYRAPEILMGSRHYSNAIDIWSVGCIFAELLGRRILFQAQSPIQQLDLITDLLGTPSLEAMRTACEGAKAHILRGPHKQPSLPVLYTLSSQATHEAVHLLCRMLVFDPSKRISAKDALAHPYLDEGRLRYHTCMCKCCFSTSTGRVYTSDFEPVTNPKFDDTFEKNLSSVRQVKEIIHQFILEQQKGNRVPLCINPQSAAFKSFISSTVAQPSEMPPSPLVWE

RPS19 = RPS19 expression in differentiating HSPCs (qRT-PCR); format: cell-based, human; details: differentiating RPS19-insufficient HSPCs
Text: As the suppression of NLK by miRNAs has been documented, we sought to screen a number of common nutritional supplements that have been documented to modulate miRNAs in their ability to improve erythroid expansion in an in vitro model of DBA. To induce ribosomal insufficiency, CD34+ HSPCs from human cord blood were transduced with a shRNA against RPS19 that reduced RPS19 expression by approximately 50% to recapitulate decreased function due to RPS19 mutations in DBA patients. As described above, metformin improves erythroid expansion by miRNA-mediated suppression of NLK mRNA expression and was therefore included as a positive control. […] Efficacy of shRNA against RPS19 was quantified by qRT-PCR. […] To determine if the ginsenoside Rb1 effect was through the inhibition of NLK, we treated differentiating HSPCs with ginsenoside Rb1 that were transduced with a non-targeting control or siRNA against NLK. Ginsenoside R1 alone or siRNA against NLK alone improved erythroid expansion by 2.7- and 5.1-fold, respectively.

NLK [2] = target: T1, NLK; assay: Kinase assay of NLK immunopurified from treated differentiating human progenitors; format: cell-based; parameters: 5000 cells per treatment were lysed and immunopurified NLK was subjected to in vitro kinase assay; endogenous in cells; host or cells: human cord blood CD34+ HSPCs transduced with shLuc / shRPS19 / shRPL11, differentiating in erythroid medium; details: NLK from ginsenoside Rb1-treated RPS19-insufficient progenitors
[3] = test system: BFU-E erythroid and CFU-GM myeloid colonies; assay: Colony assays in methylcellulose (BFU-E, CFU-GM); format: cell-based, human; details: metformin
Protocol: FIG. 9. Metformin improves expansion of CD235+ erythroblasts and BFU-E erythroid colony formation in human RPS19- and RPL11-insufficiency from CB CD34+ progenitors. (Panel A). CD34+ HSPCs were transduced with shRNA against control (shLuc), RPS19 (shRPS19) or RPL11 (shRPL11) and after sorting, were differentiated for 14 days in the presence or absence of 50 mM metformin. Cells were counted and the percentage expressing CD235+ erythroid (left) and CD11b+ myeloid (right) was determined by flow cytometry. Obtained values were multiplied to give an overall number that was normalized to the untreated control (grey columns). Values are presented as a percentage of the untreated control. (Panel B) Direct comparison between metformin treated and untreated cultures is facilitated by normalizing the metformin-treated values to the untreated values in control, RPS19- and RPL11-insufficient groups. Values are expressed as a fold induction relative to untreated. (Panel C) Transduced and sorted CD34+ progenitors were cultured in methylcellulose in the presence or absence of metformin for 16 days and BFU-E erythroid (left) and CFU-GM myeloid (right) colonies scored. Values are represented as the percentage of colonies induced in untreated controls (grey columns). (Panel D). To directly compare the effect of metformin in each group, metformin-treated cultures were normalized to untreated cultures and are expressed as a fold induction of the untreated control. (Panel E) Representative images of BFU-E colonies at day 14.Scale bar=[…]. […] Statistics: two-tailed Student's t test, significant *P<0.05
Sorted hematopoietic cells were seeded in methylcellulose medium containing IL-3, stem cell factor, granulocyte macrophage colony-stimulating factor, and erythropoietin (H4434; […] Technologies) in triplicate, with 1000 cells per plate. Erythroid (burst-forming unit erythroid) and myeloid (colony-forming unit, granulocyte-macrophage) colonies were counted 14-18 days later. In some cases, 3000 (shRPL11) or 5000 (shRPS19+TGFβ) cells per plate were added to ensure enough colonies for robust statistical analysis.
Sorted HSPCs were seeded in cytokine-containing methylcellulose medium (H4434; […] Technologies) in triplicate, with 1000 cells per plate. Erythroid (burst-forming unit erythroid) and myeloid (colony-forming unit, granulocyte-macrophage) colonies were counted 14-18 days later.

zebrafish NLK 3′UTR = assay: Luciferase fused to zebrafish NLK 3′UTR in K562 cells; format: cell-based; details: transient transfection in K562, metformin 72 hrs
NLK [4] = assay: Endogenous NLK protein in K562 cells (Western blot); format: cell-based, human; details: K562, miRNA mimetics or metformin, 72 hrs
Protocol: FIG. 14. Metformin-mediated upregulation of miR-26a in human progenitors suppresses NLK expression. (Panel A) Human CD34+ (upper) and murine Lin-Kit+ (lower) progenitors were differentiated for 8 days in the presence or absence of metformin and the levels of indicated miRNAs were assessed by qRT-PCR. (Panel B) K562 cells stably expressing the luciferase gene coupled to the NLK 3′UTR were mock transfected, transfected with indicated miRNA mimetics, or treated with metformin, and cultured in the presence or absence of metformin for 72 hrs. After lysis, luciferase activity was determined and endogenous NLK and GAPDH protein expression was analyzed by Western blot. (Panel C) K562 cells were mock transfected, or transfected with either miR-34 or miR-26 sponges, prior to being left untreated or treated with metformin for 72 hrs. Lysed cells were subjected to luciferase assay and western blotting to examine NLK and GAPDH protein expression. […] Statistics: two-tailed Student's t test, significant *P<0.05
NLK kinase activity was performed as published (5). For Western blotting, antibodies against NLK (#AB97642; Abcam; 1:1000 dilution) and GAPDH (#MAB374; Millipore; 1:10000) were used according to manufacturer's instructions.

Fc1ccc(Cl)cc1-c1nc(Nc2ccncc2)c2nccnc2n1 [SD208]
NLK kinase activity inhibited (NLK [1]): 96.8%

CC(C)=CCC[C@](C)(O[C@@H]1O[C@H](CO[C@@H]2O[C@H](CO)[C@@H](O)[C@H](O)[C@H]2O)[C@@H](O)[C@H](O)[C@H]1O)[C@H]1CC[C@]2(C)[C@@H]1[C@H](O)C[C@@H]1[C@@]3(C)CC[C@H](O[C@@H]4O[C@H](CO)[C@@H](O)[C@H](O)[C@H]4O[C@@H]4O[C@H](CO)[C@@H](O)[C@H](O)[C@H]4O)C(C)(C)[C@@H]3CC[C@]12C [ginsenoside Rb1]
influence on RPS19 expression (RPS19): did not influence
reduced NLK kinase activity (NLK [2]): 44.8%

CN(C)C(=N)N=C(N)N [metformin]
fold increase of BFU-E colonies ([3]; RPL11-insufficiency): 2.2 fold
BFU-E erythroid colonies, % of vector control (shLuc) ([3]; RPL11-insufficiency, 8.2% untreated): 14.3%
fold increase of BFU-E colonies ([3]; RPS19-insufficiency): 2.9 fold
BFU-E erythroid colonies, % of vector control (shLuc) ([3]; RPS19-insufficiency, 7.7% untreated): 16.3%
size of BFU-E colonies ([3]; RPS19-insufficient progenitors): only modestly improve
effect on CFU-GM colonies [3]: did not affect
decrease of luciferase activity, zebrafish 3′UTR (zebrafish NLK 3′UTR): 43.6%
reduction of endogenous NLK protein expression (NLK [4]): 68.6%
